Measurements taken from ChEMBL document CHEMBL3232845 (Bioorg Med Chem Lett, 2014).

Columns and labels:
[1] = biological target: Serine/threonine-protein kinase B-raf (Homo sapiens, UniProt P15056, V600E); experiment: Inhibition of B-Raf V600E mutant in human Malme-3M cells assessed as basal ERK phosphorylation; type: cell-based
[2] = Oral bioavailability in mouse at 30 mg/kg; type: ADME, organism-based; settings: in vivo
[3] = biological target: Tyrosine-protein kinase ABL2 (Homo sapiens) (UniProt P42684); experiment: Inhibition of human Abl2 assessed as enzyme activity at 1 uM relative to control; parameters: scale not given: the % may be the effect or the level left
[4] = biological target: Tyrosine-protein kinase receptor UFO (Homo sapiens) (UniProt P30530); experiment: Inhibition of human Axl assessed as enzyme activity at 1 uM relative to control; parameters: scale not given: the % may be the effect or the level left
Tyrosine-protein kinase receptor UFO (Homo sapiens), sequence (P30530 whole entry): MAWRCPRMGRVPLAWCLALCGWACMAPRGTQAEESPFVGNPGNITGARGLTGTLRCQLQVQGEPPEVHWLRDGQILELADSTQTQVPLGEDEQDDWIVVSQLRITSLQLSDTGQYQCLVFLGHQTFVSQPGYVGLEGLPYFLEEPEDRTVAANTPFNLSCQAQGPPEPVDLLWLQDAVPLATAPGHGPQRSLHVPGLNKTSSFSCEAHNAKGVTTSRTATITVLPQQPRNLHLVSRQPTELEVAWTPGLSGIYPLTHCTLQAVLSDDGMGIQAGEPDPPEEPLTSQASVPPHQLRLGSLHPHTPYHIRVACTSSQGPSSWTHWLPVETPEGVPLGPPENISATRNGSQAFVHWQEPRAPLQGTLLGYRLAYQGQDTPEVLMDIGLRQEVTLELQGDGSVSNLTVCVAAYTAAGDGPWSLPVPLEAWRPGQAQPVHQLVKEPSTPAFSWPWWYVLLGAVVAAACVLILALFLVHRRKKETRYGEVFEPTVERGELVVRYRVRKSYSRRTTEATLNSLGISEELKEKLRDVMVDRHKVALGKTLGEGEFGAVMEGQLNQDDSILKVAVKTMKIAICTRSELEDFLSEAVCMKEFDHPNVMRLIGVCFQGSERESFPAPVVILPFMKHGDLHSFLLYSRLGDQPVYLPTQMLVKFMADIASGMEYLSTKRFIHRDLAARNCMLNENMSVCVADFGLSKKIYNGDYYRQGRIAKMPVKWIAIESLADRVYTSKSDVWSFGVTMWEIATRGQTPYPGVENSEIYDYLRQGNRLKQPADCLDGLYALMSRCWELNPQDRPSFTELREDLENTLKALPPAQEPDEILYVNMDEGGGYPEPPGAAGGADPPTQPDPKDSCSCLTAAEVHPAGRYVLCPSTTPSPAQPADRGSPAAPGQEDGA

[5] = biological target: Cytoplasmic tyrosine-protein kinase BMX (Homo sapiens) (UniProt P51813); experiment: Inhibition of human Bmx assessed as enzyme activity at 1 uM relative to control; parameters: scale not given: the % may be the effect or the level left
Cytoplasmic tyrosine-protein kinase BMX (Homo sapiens), sequence (P51813 whole entry): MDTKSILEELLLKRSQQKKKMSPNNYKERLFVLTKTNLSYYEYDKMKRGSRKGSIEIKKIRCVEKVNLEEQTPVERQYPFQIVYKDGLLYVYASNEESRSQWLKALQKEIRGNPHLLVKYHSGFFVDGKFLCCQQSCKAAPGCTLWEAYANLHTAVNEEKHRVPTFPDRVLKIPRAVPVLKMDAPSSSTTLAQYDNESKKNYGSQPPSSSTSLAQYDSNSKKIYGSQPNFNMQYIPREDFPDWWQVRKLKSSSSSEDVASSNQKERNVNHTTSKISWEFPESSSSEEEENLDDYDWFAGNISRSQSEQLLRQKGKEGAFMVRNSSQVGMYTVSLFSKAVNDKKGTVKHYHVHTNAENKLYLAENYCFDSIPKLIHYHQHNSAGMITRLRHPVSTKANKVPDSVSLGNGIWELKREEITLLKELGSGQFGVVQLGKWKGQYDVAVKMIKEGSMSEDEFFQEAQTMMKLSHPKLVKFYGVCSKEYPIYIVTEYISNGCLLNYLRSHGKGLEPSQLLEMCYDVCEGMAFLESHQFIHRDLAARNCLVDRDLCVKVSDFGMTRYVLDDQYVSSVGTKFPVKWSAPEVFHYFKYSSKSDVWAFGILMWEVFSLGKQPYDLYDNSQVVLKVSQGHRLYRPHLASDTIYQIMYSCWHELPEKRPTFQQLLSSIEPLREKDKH

[6] = biological target: CDK3/Cyclin E (Homo sapiens) (UniProt P24864+Q00526); experiment: Inhibition of human CDK3/cyclinE assessed as enzyme activity at 1 uM relative to control; type: protein-complex assay; parameters: scale not given: the % may be the effect or the level left
CDK3/Cyclin E (Homo sapiens), sequence (P24864 whole entry, looked up): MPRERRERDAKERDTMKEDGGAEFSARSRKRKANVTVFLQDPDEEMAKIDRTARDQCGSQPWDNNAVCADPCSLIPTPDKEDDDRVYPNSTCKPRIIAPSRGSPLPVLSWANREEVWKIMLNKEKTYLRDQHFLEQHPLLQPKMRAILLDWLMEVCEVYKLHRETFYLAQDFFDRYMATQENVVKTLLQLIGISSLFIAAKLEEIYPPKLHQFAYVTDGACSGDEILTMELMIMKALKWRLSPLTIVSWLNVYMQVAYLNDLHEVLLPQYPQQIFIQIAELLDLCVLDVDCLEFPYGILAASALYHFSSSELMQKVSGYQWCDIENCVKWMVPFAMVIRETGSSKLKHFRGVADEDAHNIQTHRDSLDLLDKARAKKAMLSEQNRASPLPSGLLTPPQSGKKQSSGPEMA
CDK3/Cyclin E (Homo sapiens), sequence (Q00526 whole entry, looked up): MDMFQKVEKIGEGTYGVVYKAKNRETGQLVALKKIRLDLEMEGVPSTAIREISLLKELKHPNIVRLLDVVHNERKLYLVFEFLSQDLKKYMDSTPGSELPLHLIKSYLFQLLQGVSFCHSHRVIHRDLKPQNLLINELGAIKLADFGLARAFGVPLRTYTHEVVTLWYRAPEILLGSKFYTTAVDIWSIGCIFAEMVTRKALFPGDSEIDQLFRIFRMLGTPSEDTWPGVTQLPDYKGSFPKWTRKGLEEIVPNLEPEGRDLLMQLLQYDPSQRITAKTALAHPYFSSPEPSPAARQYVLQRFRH

[7] = biological target: Cyclin-dependent kinase 5/CDK5 activator 1 (Homo sapiens) (UniProt Q00535+Q15078); experiment: Inhibition of human CDK5/p35 assessed as enzyme activity at 1 uM relative to control; type: protein-complex assay; parameters: scale not given: the % may be the effect or the level left
[8] = biological target: CDK6/cyclin D3 (Homo sapiens) (UniProt P30281+Q00534); experiment: Inhibition of human CDK6/cyclinD3 assessed as enzyme activity at 1 uM relative to control; type: protein-complex assay; parameters: scale not given: the % may be the effect or the level left
[9] = biological target: Serine/threonine-protein kinase Chk2 (Homo sapiens) (UniProt O96017); experiment: Inhibition of human CHK2 assessed as enzyme activity at 1 uM relative to control; parameters: scale not given: the % may be the effect or the level left
[10] = biological target: Casein kinase II subunit alpha' (Homo sapiens) (UniProt P19784); experiment: Inhibition of human CK2alpha2 assessed as enzyme activity at 1 uM relative to control; parameters: scale not given: the % may be the effect or the level left
Casein kinase II subunit alpha' (Homo sapiens), sequence (P19784 whole entry, looked up): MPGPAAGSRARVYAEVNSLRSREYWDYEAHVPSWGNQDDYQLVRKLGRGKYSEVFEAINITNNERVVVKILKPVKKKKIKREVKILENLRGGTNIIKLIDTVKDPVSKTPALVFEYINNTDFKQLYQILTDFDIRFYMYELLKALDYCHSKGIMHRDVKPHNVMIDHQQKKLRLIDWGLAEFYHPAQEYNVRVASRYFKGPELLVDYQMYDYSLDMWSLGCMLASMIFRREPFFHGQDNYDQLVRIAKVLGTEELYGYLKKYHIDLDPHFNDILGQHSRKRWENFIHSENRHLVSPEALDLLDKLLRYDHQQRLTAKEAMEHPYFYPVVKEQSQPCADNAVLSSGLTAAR

[11] = biological target: Dual specificity protein kinase CLK3 (Homo sapiens) (UniProt P49761); experiment: Inhibition of human CLK3 assessed as enzyme activity at 1 uM relative to control; parameters: scale not given: the % may be the effect or the level left
[12] = biological target: Death-associated protein kinase 2 (Homo sapiens) (UniProt Q9UIK4); experiment: Inhibition of human DAPK2 assessed as enzyme activity at 1 uM relative to control; parameters: scale not given: the % may be the effect or the level left
[13] = biological target: Serine/threonine-protein kinase TAO3 (Homo sapiens) (UniProt Q9H2K8); experiment: Inhibition of human TAO3 assessed as enzyme activity at 1 uM relative to control; parameters: scale not given: the % may be the effect or the level left
[14] = biological target: Serine/threonine-protein kinase TBK1 (Homo sapiens) (UniProt Q9UHD2); experiment: Inhibition of human TBK1 assessed as enzyme activity at 1 uM relative to control; parameters: scale not given: the % may be the effect or the level left
[15] = biological target: Testis-specific serine/threonine-protein kinase 1 (Homo sapiens) (UniProt Q9BXA7); experiment: Inhibition of human TSSK1 assessed as enzyme activity at 1 uM relative to control; parameters: scale not given: the % may be the effect or the level left
[16] = biological target: Serine/threonine-protein kinase VRK2 (Homo sapiens) (UniProt Q86Y07); experiment: Inhibition of human VRK2 assessed as enzyme activity at 1 uM relative to control; parameters: scale not given: the % may be the effect or the level left
[17] = biological target: RAF proto-oncogene serine/threonine-protein kinase (Homo sapiens) (UniProt P04049); experiment: Inhibition of human c-RAF assessed as enzyme activity at 1 uM relative to control; parameters: scale not given: the % may be the effect or the level left
[18] = biological target: Mitogen-activated protein kinase 14 (Homo sapiens) (UniProt Q16539); experiment: Inhibition of human p38alpha assessed as enzyme activity at 1 uM relative to control; parameters: scale not given: the % may be the effect or the level left
[19] = biological target: Mitogen-activated protein kinase 12 (Homo sapiens) (UniProt P53778); experiment: Inhibition of human p38gamma assessed as enzyme activity at 1 uM relative to control; parameters: scale not given: the % may be the effect or the level left
[20] = biological target: Ribosomal protein S6 kinase beta-1 (Homo sapiens) (UniProt P23443); experiment: Inhibition of human p70S6K assessed as enzyme activity at 1 uM relative to control; parameters: scale not given: the % may be the effect or the level left
[21] = biological target: Ribosomal protein S6 kinase alpha-5 (Homo sapiens) (UniProt O75582); experiment: Inhibition of human MSK1 assessed as enzyme activity at 1 uM relative to control; parameters: scale not given: the % may be the effect or the level left
[22] = biological target: Ribosomal protein S6 kinase alpha-4 (Homo sapiens) (UniProt O75676); experiment: Inhibition of human MSK2 assessed as enzyme activity at 1 uM relative to control; parameters: scale not given: the % may be the effect or the level left
[23] = biological target: Serine/threonine-protein kinase 4 (Homo sapiens) (UniProt Q13043); experiment: Inhibition of human MST1 assessed as enzyme activity at 1 uM relative to control; parameters: scale not given: the % may be the effect or the level left
[24] = biological target: Serine/threonine-protein kinase Nek2 (Homo sapiens) (UniProt P51955); experiment: Inhibition of human NEK2 assessed as enzyme activity at 1 uM relative to control; parameters: scale not given: the % may be the effect or the level left
[25] = biological target: Serine/threonine-protein kinase PAK 2 (Homo sapiens) (UniProt Q13177); experiment: Inhibition of human PAK2 assessed as enzyme activity at 1 uM relative to control; parameters: scale not given: the % may be the effect or the level left
[26] = biological target: Serine/threonine-protein kinase PAK 6 (Homo sapiens) (UniProt Q9NQU5); experiment: Inhibition of human PAK6 assessed as enzyme activity at 1 uM relative to control; parameters: scale not given: the % may be the effect or the level left
Serine/threonine-protein kinase PAK 6 (Homo sapiens), sequence (Q9NQU5 whole entry, looked up): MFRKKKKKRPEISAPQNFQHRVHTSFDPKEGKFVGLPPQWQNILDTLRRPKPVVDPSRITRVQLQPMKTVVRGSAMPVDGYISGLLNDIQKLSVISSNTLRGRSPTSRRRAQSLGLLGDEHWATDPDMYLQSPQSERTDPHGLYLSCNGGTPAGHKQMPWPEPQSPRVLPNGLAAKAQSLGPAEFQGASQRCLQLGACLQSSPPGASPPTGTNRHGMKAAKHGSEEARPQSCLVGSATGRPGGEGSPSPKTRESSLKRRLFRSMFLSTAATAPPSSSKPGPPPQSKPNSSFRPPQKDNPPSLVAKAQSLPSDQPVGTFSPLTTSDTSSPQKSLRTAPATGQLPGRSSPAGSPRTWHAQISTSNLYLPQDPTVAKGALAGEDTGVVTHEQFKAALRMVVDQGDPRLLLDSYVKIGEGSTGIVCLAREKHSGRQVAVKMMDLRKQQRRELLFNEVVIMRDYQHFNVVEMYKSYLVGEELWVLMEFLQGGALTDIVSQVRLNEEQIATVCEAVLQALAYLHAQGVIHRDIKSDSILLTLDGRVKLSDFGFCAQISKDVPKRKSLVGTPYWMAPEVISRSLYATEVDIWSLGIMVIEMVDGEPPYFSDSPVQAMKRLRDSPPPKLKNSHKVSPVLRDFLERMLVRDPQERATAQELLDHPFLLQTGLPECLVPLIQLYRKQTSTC

[27] = biological target: 3-phosphoinositide-dependent protein kinase 1 (Homo sapiens) (UniProt O15530); experiment: Inhibition of human PDK1 assessed as enzyme activity at 1 uM relative to control; parameters: scale not given: the % may be the effect or the level left
[28] = biological target: Protein kinase C zeta type (Homo sapiens) (UniProt Q05513); experiment: Inhibition of human PKCzeta assessed as enzyme activity at 1 uM relative to control; parameters: scale not given: the % may be the effect or the level left
[29] = biological target: Serine/threonine-protein kinase D2 (Homo sapiens) (UniProt Q9BZL6); experiment: Inhibition of human PKD2 assessed as enzyme activity at 1 uM relative to control; parameters: scale not given: the % may be the effect or the level left
[30] = biological target: Serine/threonine-protein kinase PLK3 (Homo sapiens) (UniProt Q9H4B4); experiment: Inhibition of human Plk3 assessed as enzyme activity at 1 uM relative to control; parameters: scale not given: the % may be the effect or the level left
[31] = biological target: cAMP-dependent protein kinase catalytic subunit PRKX (Homo sapiens) (UniProt P51817); experiment: Inhibition of human PrKX assessed as enzyme activity at 1 uM relative to control; parameters: scale not given: the % may be the effect or the level left
[32] = biological target: Serine/threonine-protein kinase Sgk1 (Homo sapiens) (UniProt O00141); experiment: Inhibition of human SGK1 assessed as enzyme activity at 1 uM relative to control; parameters: scale not given: the % may be the effect or the level left
[33] = biological target: Rhodopsin kinase GRK7 (Homo sapiens) (UniProt Q8WTQ7); experiment: Inhibition of human GRK7 assessed as enzyme activity at 1 uM relative to control; parameters: scale not given: the % may be the effect or the level left
[34] = biological target: Insulin-like growth factor 1 receptor (Homo sapiens) (UniProt P08069); experiment: Inhibition of human IGF-1R assessed as enzyme activity at 1 uM relative to control; parameters: scale not given: the % may be the effect or the level left
[35] = biological target: Tyrosine-protein kinase ITK/TSK (Homo sapiens) (UniProt Q08881); experiment: Inhibition of human ITK assessed as enzyme activity at 1 uM relative to control; parameters: scale not given: the % may be the effect or the level left
Tyrosine-protein kinase ITK/TSK (Homo sapiens), sequence (Q08881 whole entry): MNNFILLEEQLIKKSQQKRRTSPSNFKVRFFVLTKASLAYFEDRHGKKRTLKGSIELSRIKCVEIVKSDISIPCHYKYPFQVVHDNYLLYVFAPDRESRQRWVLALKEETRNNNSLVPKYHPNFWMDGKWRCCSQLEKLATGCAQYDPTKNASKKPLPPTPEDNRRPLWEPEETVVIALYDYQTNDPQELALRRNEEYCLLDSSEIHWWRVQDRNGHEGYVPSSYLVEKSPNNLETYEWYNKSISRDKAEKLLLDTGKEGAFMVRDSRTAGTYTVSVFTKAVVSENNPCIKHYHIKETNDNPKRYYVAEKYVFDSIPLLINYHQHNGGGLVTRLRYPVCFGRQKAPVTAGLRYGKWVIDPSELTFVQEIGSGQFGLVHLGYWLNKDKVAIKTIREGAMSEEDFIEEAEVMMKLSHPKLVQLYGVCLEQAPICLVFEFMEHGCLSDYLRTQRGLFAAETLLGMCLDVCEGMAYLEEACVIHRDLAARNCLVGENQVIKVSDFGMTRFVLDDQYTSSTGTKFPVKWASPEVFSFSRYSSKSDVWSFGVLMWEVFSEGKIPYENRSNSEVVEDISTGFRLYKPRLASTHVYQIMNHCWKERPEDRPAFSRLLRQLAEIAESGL

[36] = biological target: Tyrosine-protein kinase JAK2 (Homo sapiens) (UniProt O60674); experiment: Inhibition of human JAK2 assessed as enzyme activity at 1 uM relative to control; parameters: scale not given: the % may be the effect or the level left
[37] = biological target: Serine/threonine-protein kinase MARK1 (Homo sapiens) (UniProt Q9P0L2); experiment: Inhibition of human MARK1 assessed as enzyme activity at 1 uM relative to control; parameters: scale not given: the % may be the effect or the level left
[38] = biological target: Serine/threonine-protein kinase MARK2 (Homo sapiens) (UniProt Q7KZI7); experiment: Inhibition of human MARK2 assessed as enzyme activity at 1 uM relative to control; parameters: scale not given: the % may be the effect or the level left
Serine/threonine-protein kinase MARK2 (Homo sapiens), sequence (Q7KZI7 whole entry): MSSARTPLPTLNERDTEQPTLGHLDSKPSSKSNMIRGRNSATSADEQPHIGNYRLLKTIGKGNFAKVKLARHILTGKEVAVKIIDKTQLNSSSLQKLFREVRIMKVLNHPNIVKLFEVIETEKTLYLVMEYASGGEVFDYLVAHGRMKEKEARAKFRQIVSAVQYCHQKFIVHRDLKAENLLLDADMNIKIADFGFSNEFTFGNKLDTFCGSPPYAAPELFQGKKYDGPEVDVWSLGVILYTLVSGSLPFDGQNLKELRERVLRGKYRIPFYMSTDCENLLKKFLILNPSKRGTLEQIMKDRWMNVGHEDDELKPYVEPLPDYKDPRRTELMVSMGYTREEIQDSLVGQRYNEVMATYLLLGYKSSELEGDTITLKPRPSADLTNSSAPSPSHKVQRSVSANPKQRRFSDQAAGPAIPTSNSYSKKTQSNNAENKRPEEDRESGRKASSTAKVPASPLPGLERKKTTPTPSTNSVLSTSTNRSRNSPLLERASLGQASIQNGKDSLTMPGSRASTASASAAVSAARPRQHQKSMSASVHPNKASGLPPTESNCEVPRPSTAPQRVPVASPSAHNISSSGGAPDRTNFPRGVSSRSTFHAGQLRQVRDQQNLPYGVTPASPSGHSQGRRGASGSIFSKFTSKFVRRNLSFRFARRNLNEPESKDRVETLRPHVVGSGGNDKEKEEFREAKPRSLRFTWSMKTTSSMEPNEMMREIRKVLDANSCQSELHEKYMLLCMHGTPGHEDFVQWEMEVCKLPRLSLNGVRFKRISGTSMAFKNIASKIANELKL

Question: With `CCCS(=O)(=O)Nc1cccc(Nc2ccc3ncn(C)c(=O)c3c2)c1C#N` as the compound, how does the IC50 [1] read?
Answer: Its IC50 is 6 nM.

Question: What about the bioavailability [2] of the same compound?
Answer: Its bioavailability is 60%.

Question: And the Activity [3]?
Answer: Its Activity is 108%.

Question: What about the Activity [4] of the same compound?
Answer: The Activity was 93%.

Question: And the Activity [5]?
Answer: The Activity was 91.5%.

Question: And the Activity [6]?
Answer: The Activity was 106%.

Question: What about the Activity [7] of the same compound?
Answer: Its Activity is 114%.

Question: And the Activity [8]?
Answer: The Activity was 104%.

Question: And the Activity [9]?
Answer: The Activity was 100%.

Question: What about the Activity [10] of the same compound?
Answer: Its Activity is 99%.

Question: And the Activity [11]?
Answer: The Activity was 96%.

Question: And the Activity [12]?
Answer: Its Activity is 108%.

Question: And the Activity [13]?
Answer: The Activity was 100%.

Question: What about the Activity [14] of the same compound?
Answer: Its Activity is 98%.

Question: What about the Activity [15] of the same compound?
Answer: Its Activity is 98%.

Question: And the Activity [16]?
Answer: The Activity was 102%.

Question: What about the Activity [17] of the same compound?
Answer: Its Activity is 1.5%.

Question: What about the Activity [18] of the same compound?
Answer: The Activity was 103%.

Question: What about the Activity [19] of the same compound?
Answer: The Activity was 106%.

Question: What about the Activity [20] of the same compound?
Answer: Its Activity is 112%.

Question: And the Activity [21]?
Answer: The Activity was 132%.

Question: And the Activity [22]?
Answer: Its Activity is 111%.

Question: What about the Activity [23] of the same compound?
Answer: Its Activity is 108%.

Question: And the Activity [24]?
Answer: The Activity was 116%.

Question: What about the Activity [25] of the same compound?
Answer: Its Activity is 114%.

Question: What about the Activity [26] of the same compound?
Answer: Its Activity is 110%.

Question: What about the Activity [27] of the same compound?
Answer: The Activity was 105%.

Question: And the Activity [28]?
Answer: Its Activity is 103%.

Question: And the Activity [29]?
Answer: The Activity was 95.5%.

Question: What about the Activity [30] of the same compound?
Answer: The Activity was 99.5%.

Question: What about the Activity [31] of the same compound?
Answer: Its Activity is 109%.

Question: What about the Activity [32] of the same compound?
Answer: The Activity was 121%.

Question: And the Activity [33]?
Answer: Its Activity is 103%.

Question: What about the Activity [34] of the same compound?
Answer: The Activity was 108%.

Question: And the Activity [35]?
Answer: The Activity was 102%.

Question: What about the Activity [36] of the same compound?
Answer: The Activity was 110%.

Question: What about the Activity [37] of the same compound?
Answer: Its Activity is 117%.

Question: What about the Activity [38] of the same compound?
Answer: Its Activity is 100%.
